≈ marks a conversion by molar mass, not a printed value.
What was measured:
patients = experiment: Clinical trials employing crystalline Form A: adverse effects; assay type: in vivo, human
Excerpt: In clinical trials employing crystalline Form A of Compound (I), adverse effects were categorized by severity into Grades 1-5. Most adverse events reported were Grade 1 or 2, indicating crystalline Form A of Compound (I) is well-tolerated. […] Severe dose limiting toxicities for other TKIs may be a result of inhibiting a broad range of kinases.

[1] = Dynamic vapor sorption (DVS); assay type: physicochemical
Description: DVS: Dynamic Vapor Sorption (DVS) was performed using a DVS Intrinsic 1. The sample was loaded into a sample pan and suspended from a microbalance. A typical sample mass for DVS measurement was 25 mg. Nitrogen gas bubbled through distilled water provided the desired relative humidity. A typical measurement comprised the following steps: • 1. Equilibrate at 50% RH • 2. 50% to 2%. (50%, 40%, 30%, 20%, 10%, and 2%) • a. Hold minimum of 5 minutes and maximum of 60 minutes at each humidity. The pass criteria was less than 0.002% change; • 3. 2% to 95% (2%, 10%, 20%, 30%, 40%, 50%, 60%, 70%, 80%, 90%, 95%) • a. Hold minimum of 5 minutes and maximum of 60 minutes at each humidity. The pass criteria was less than 0.002% change; • 4. 95% to 2% (95%, 80%, 70%, 60%, 50%, 40%, 30%, 20%, 10%, 2%) • a. Hold minimum of 5 minutes and maximum of 60 minutes at each humidity. The pass criteria was less than 0.002% change; • 5. 2% to 50% (2%, 10%, 20%, 30%, 40%, 50%) • a. Hold minimum of 5 minutes and maximum of 60 minutes at each humidity. The pass criteria was less than 0.002% change.

[2] = Stability comparison of the crystalline forms; assay type: physicochemical; conditions: ambient temperature
[3] = for Solubility, FaSSGF: pH 1.67; for Solubility, FaSSIF: pH 6.57
Description: Fasted simulated intestinal fluid (FaSSIF) (pH=6.57) was prepared by dissolving NaOH pellets (0.105 g), NaH2PO4·H2O (0.9875 g), and NaCl (1.5475 g) in distilled water (225 mL) and adjusting the pH to 6.57 by adding 1 N NaOH solution and 1 N HCl. Water was then added to a volume of 250 mL to produce phosphate buffer. Biorelevant powder (0.56 g) was dissolved in the phosphate buffer (125 mL), then made up to 250 mL using phosphate buffer. The prepared solution was left standing for 2 hours and then used for solubility measurements.
Fasted simulated gastric fluid (FaSSGF) (pH=1.67) was prepared by dissolving NaCl (0.5 g) in distilled water (225 mL). The pH was adjusted to 1.67 using 1 N HCl, then the solution was made up to 250 mL using distilled water to produce NaCl/HCl solution. Biorelevant powder (0.015 g) was dissolved in NaCl/HCl solution (125 mL), then made up to 250 mL using NaCl/HCl solution. The prepared solution was ready for use.
Solubility of crystalline Form A and a mixture of crystalline Form A and crystalline Form C was measured in fasted simulated intestinal fluid (FaSSIF), fasted simulated gastric fluid (FaSSGF), and water at 37° C. Thin slurries were stirred overnight and then supernatant was collected for HPLC analysis.
Solubility of crystalline Form H of a hydrochloride salt of Compound (I), crystalline Form Tr of a tartrate salt of Compound (I), and crystalline Form T of a tosylate salt of Compound (I) was measured in fasted state simulated intestinal fluid (FaSSIF), fasted state simulated gastric fluid (FaSSGF), and water at 37° C. About 1.5 mL solution was stirred at 37° C. The salt was then added incrementally until a thin slurry was formed, followed by stirring overnight. The solids were allowed to settle, and the pH of the supernatant was taken. Supernatant was recovered for injection to HPLC and solids were recovered for XRPD.
Solubility was determined based on interpolation from a calibration curve prepared using freebase.

[4] = XRPD of solids recovered from the solubility slurries; assay type: physicochemical; conditions: 37° C.; for Stability of crystalline form upon slurrying (XRPD): overnight
Description: XRPD: X-ray powder diffraction was done using a Rigaku MiniFlex 600. Samples were prepared on Si zero-return wafers. Typical scans were obtained from 20 of 4 to 30 degrees, with step size 0.05 degrees over five minutes with 40 kV and 15 mA. High resolution scans were obtained from 20 of 4 to 40 degrees, with step size 0.05 degrees over thirty minutes with 40 kV and 15 mA. Typical parameters for XRPD are listed below.
Solids were recovered from the slurries for analysis by XRPD. Crystalline Form H was stable upon slurrying in all solutions. Crystalline Form Tr was stable upon slurrying in water.

Row | Compound | Weight change in DVS experiment ([1]; 2-95% RH at 25° C.) [%] | Weight change in DVS experiment ([1]; 2-95% RH at 40° C.) [%] | Solubility, FaSSGF [3] [µg/mL] | Solubility, FaSSIF [3] [µg/mL] | Weight change in DVS experiment ([1]; 2-95% RH at room temperature) [%] | other results
1 | Cn1cc(-c2cc3c(N4CCN(c5ncc([C@@](C)(N)c6ccc(F)cc6)cn5)CC4)ncnn3c2)cn1 [crystalline Form A, (S)-1-(4-fluorophenyl)-1-(2-(4-(6-(1-methyl-1H-pyrazol-4-yl)pyrrolo[2,1-f][1,2,4]triazin-4-yl)piperazin-1-yl)pyrimidin-5-yl)ethan-1-amine] | 0.42 | 0.29 | 2110 (≈ 4.23 mM) |  |  | Severe dose limiting toxicities observed for other TKIs (dermatologic, hepatic, cardiovascular) (patients): did not exhibit; Severity grade of most adverse events reported (patients; Grades 1-5): Grade 1 or 2; Hygroscopicity by DVS analysis [1]: non-hygroscopic; Weight change in DVS experiment ([1]; 70-95% RH at 40° C.): 0.20%; Moisture uptake by weight ([1]; exposed to 40° C. and up to 95% relative humidity): up to 0.44%; Stability relative to the other crystalline forms [2]: more stable
2 | Cn1cc(-c2cc3c(N4CCN(c5ncc([C@@](C)(N)c6ccc(F)cc6)cn5)CC4)ncnn3c2)cn1 [crystalline Form C, (S)-1-(4-fluorophenyl)-1-(2-(4-(6-(1-methyl-1H-pyrazol-4-yl)pyrrolo[2,1-f][1,2,4]triazin-4-yl)piperazin-1-yl)pyrimidin-5-yl)ethan-1-amine] | 2.90 | 2.99 | 2720 (≈ 5.46 mM) | 30 (≈ 0.0602 mM) |  | Weight change in DVS experiment ([1]; 2-10% RH at 25° C.): 1.76%; Weight change in DVS experiment ([1]; 2-10% RH at 40° C.): 1.93%
3 | Cn1cc(-c2cc3c(N4CCN(c5ncc([C@@](C)(N)c6ccc(F)cc6)cn5)CC4)ncnn3c2)cn1 [crystalline Form H] |  |  | 4180 (≈ 8.38 mM) | 100 (≈ 0.201 mM) | 15 | Weight change in DVS experiment ([1]; 80-95% RH at room temperature): 10.8%; Stability of crystalline form upon slurrying (XRPD) ([4]; all solutions (FaSSIF, FaSSGF, water)): stable
4 | Cn1cc(-c2cc3c(N4CCN(c5ncc([C@@](C)(N)c6ccc(F)cc6)cn5)CC4)ncnn3c2)cn1 [crystalline Form T] |  |  | 1880 (≈ 3.77 mM) | 80 (≈ 0.16 mM) |  | 
5 | Cn1cc(-c2cc3c(N4CCN(c5ncc([C@@](C)(N)c6ccc(F)cc6)cn5)CC4)ncnn3c2)cn1 [crystalline Form Tr] |  |  | 4790 (≈ 9.61 mM) | 270 (≈ 0.542 mM) | 4.4 | Stability of crystalline form upon slurrying (XRPD) ([4]; FaSSGF): converted into crystalline Form H; Behaviour of solid in slurry ([4]; FaSSIF): gummed; Stability of crystalline form upon slurrying (XRPD) ([4]; water): stable

— patent US11964980B2, “Crystalline forms of (S)-1-(4-fluorophenyl)-1-(2-(4-(6-(1-methyl-1H-pyrazol-4-yl)pyrrolo[2,1- f][1,2,4]triazin-4-yl)piperazinyl)-pyrimidin-5-yl)ethan-1-amine and methods of making” (Blueprint Medicines Corporation, priority 2019, dated 2024)
